Assay results reported in ChEMBL document CHEMBL4342477, “Single Nucleotide Polymorphisms in the Melanocortin His-Phe-Arg-Trp Sequences Decrease Tetrapeptide Potency and Efficacy” (ACS Med Chem Lett, 2020).
Non-standard residues stand in square brackets, D forms with d. Residues, ends and D or L forms follow the SMILES beside them.

How the values were obtained:
Format in all cases: functional, cell-based
[1] = target: T1, Melanocyte-stimulating hormone receptor (Mus musculus, UniProt Q01727); test: Agonist activity at mouse melanocortin receptor 1 expressed in HEK293 cells assessed as stimulation of cAMP accumulation incubated for 2 hrs by cAMP AlphaScreen assay
T1 sequence (Q01727 whole entry): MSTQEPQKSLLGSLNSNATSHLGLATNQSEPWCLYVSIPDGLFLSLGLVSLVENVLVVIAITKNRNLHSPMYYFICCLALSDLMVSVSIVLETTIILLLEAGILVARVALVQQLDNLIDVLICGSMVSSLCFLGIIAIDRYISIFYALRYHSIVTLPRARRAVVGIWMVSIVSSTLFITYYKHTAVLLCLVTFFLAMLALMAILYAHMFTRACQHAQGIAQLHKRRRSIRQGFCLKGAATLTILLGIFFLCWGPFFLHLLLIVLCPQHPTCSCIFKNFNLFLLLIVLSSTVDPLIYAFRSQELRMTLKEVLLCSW

[2] = target: Melanocortin receptor 3 (Mus musculus, UniProt P33033); test: Agonist activity at mouse melanocortin receptor 3 expressed in HEK293 cells assessed as stimulation of cAMP accumulation incubated for 2 hrs by cAMP Alpha-screen assay
Sequence of Melanocortin receptor 3 (P33033 whole entry): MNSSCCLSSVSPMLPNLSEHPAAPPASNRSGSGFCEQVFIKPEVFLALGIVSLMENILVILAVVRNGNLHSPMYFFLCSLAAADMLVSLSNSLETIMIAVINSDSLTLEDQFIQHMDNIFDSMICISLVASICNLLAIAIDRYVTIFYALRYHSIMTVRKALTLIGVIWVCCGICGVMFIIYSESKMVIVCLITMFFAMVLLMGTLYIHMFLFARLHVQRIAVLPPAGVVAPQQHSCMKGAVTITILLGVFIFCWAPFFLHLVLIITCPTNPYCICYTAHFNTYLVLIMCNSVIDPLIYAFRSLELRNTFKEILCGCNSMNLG

[3] = target: Melanocortin receptor 3 (Mus musculus) (UniProt P33033); test: Partial agonist activity at mouse melanocortin receptor 3 expressed in HEK293 cells assessed as stimulation of cAMP accumulation incubated for 2 hrs by cAMP Alpha-screen assay relative to NDP-MSH
Sequence of Melanocortin receptor 3 (Mus musculus) (P33033 whole entry): as above

[4] = target: Melanocortin receptor 4 (Mus musculus, UniProt P56450); test: Agonist activity at mouse melanocortin receptor 4 expressed in HEK293 cells assessed as stimulation of cAMP accumulation incubated for 2 hrs by cAMP Alpha-screen assay
Sequence of Melanocortin receptor 4 (P56450 whole entry): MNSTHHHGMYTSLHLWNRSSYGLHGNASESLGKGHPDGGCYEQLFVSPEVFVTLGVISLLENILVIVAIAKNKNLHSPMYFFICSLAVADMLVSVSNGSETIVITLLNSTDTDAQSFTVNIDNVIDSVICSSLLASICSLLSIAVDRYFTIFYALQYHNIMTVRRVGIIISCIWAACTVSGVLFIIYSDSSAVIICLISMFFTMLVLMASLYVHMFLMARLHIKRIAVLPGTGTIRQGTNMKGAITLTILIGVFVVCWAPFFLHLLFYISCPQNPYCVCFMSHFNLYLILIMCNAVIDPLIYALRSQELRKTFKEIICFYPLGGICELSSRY

[5] = target: Melanocortin receptor 4 (Mus musculus) (UniProt P56450); test: Partial agonist activity at mouse melanocortin receptor 4 expressed in HEK293 cells assessed as stimulation of cAMP accumulation incubated for 2 hrs by cAMP Alpha-screen assay relative to NDP-MSH
Sequence of Melanocortin receptor 4 (Mus musculus) (P56450 whole entry): as above

[6] = target: Melanocortin receptor 5 (Mus musculus, UniProt P41149); test: Agonist activity at mouse melanocortin receptor 5 expressed in HEK293 cells assessed as stimulation of cAMP accumulation incubated for 2 hrs by cAMP Alpha-screen assay
Sequence of Melanocortin receptor 5 (P41149 whole entry): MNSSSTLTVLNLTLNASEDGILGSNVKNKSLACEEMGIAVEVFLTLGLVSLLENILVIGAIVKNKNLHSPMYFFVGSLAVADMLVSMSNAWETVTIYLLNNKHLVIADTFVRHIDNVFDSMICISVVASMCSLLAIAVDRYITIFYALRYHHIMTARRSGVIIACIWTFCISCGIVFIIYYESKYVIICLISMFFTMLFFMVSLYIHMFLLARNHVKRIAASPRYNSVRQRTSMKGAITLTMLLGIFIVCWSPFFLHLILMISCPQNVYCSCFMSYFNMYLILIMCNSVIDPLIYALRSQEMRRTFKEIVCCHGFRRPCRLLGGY

[7] = target: Melanocortin receptor 5 (Mus musculus) (UniProt P41149); test: Partial agonist activity at mouse melanocortin receptor 5 expressed in HEK293 cells assessed as stimulation of cAMP accumulation incubated for 2 hrs by cAMP Alpha-screen assay relative to NDP-MSH
Sequence of Melanocortin receptor 5 (Mus musculus) (P41149 whole entry): as above

[8] = target: Melanocortin receptor 3 (Mus musculus) (UniProt P33033); test: Agonist activity at mouse melanocortin receptor 3 expressed in HEK293 cells assessed as stimulation of cAMP accumulation at 100 uM incubated for 2 hrs by cAMP Alpha-screen assay relative to control
[9] = target: Melanocortin receptor 5 (Mus musculus) (UniProt P41149); test: Agonist activity at mouse melanocortin receptor 5 expressed in HEK293 cells assessed as stimulation of cAMP accumulation at 100 uM incubated for 2 hrs by cAMP Alpha-screen assay relative to control
[10] = target: Melanocortin receptor 4 (Mus musculus) (UniProt P56450); test: Agonist activity at mouse melanocortin receptor 4 expressed in HEK293 cells assessed as fold decrease in potency of stimulation of cAMP accumulation incubated for 2 hrs by cAMP Alpha-screen assay
[11] = target: Melanocyte-stimulating hormone receptor (Mus musculus) (UniProt Q01727); test: Agonist activity at mouse melanocortin receptor 1 expressed in HEK293 cells assessed as fold decrease in potency of stimulation of cAMP accumulation incubated for 2 hrs by cAMP AlphaScreen assay
Sequence of Melanocyte-stimulating hormone receptor (Mus musculus) (Q01727 whole entry, looked up): as the sequence (Q01727 whole entry) above

[12] = target: T1, Melanocyte-stimulating hormone receptor; test: Agonist activity at mouse melanocortin receptor 1 expressed in HEK293 cells assessed as stimulation of cAMP accumulation incubated for 6 hrs by beta-galactosidase cAMP assay
[13] = target: Melanocortin receptor 4 (Mus musculus) (UniProt P56450); test: Agonist activity at mouse melanocortin receptor 4 expressed in HEK293 cells assessed as fold decrease in potency of stimulation of cAMP accumulation incubated for 2 hrs by cAMP Alpha-screen assay relative to Ac-His-DPhe-Arg-Trp-NH2
[14] = target: Melanocyte-stimulating hormone receptor (Mus musculus) (UniProt Q01727); test: Agonist activity at mouse melanocortin receptor 1 expressed in HEK293 cells assessed as stimulation of cAMP accumulation at 100 uM incubated for 2 hrs by cAMP AlphaScreen assay relative to control

EC50 [1] [nM]	EC50 [2] [nM]	EC50 [4] [nM]	EC50 [6] [nM]	SMILES	further results
1200	3000	90	400	CC(=O)N[C@@H](Cc1ccc(O)cc1)C(=O)N[C@H](Cc1ccccc1)C(=O)N[C@@H](CCCNC(=N)N)C(=O)N[C@@H](Cc1c[nH]c2ccccc12)C(N)=O (Ac-Y[dF]RW-NH2)	Emax [3]: 50%; Emax [5]: 65%; Emax [7]: 80%
> 100000	> 100000	> 100000	> 100000	CC(=O)N[C@@H](Cc1cnc[nH]1)C(=O)N[C@H](C(=O)N[C@@H](CCCNC(=N)N)C(=O)N[C@@H](Cc1c[nH]c2ccccc12)C(N)=O)C(C)C (Ac-HVRW-NH2)	
			220	CC(=O)N[C@@H](Cc1c[nH]cn1)C(=O)N[C@@H](Cc1ccccc1)C(=O)N[C@@H](CCCN=C(N)N)C(=O)N[C@@H](Cc1c[nH]c2ccccc12)C(N)=O	
1600		> 100000		CC(=O)N[C@@H](Cc1cnc[nH]1)C(=O)N[C@H](Cc1ccccc1)C(=O)N[C@@H](CCCNC(=N)N)C(=O)N[C@@H](CO)C(N)=O	Emax [8]: 50%; Emax [9]: 75%
400	6000	3100	1700	CC(=O)N[C@@H](Cc1cnc[nH]1)C(=O)N[C@H](Cc1ccccc1)C(=O)N[C@@H](CS)C(=O)N[C@@H](Cc1c[nH]c2ccccc12)C(N)=O	Emax [3]: 85%; fold change (FC) [10]: 140; fold change (FC) [11]: 25
2100		1000	2000	CC(=O)N1CCC[C@H]1C(=O)N[C@H](Cc1ccccc1)C(=O)N[C@@H](CCCN=C(N)N)C(=O)N[C@@H](Cc1c[nH]c2ccccc12)C(N)=O (Ac-P[dF]RW-NH2)	EC50 [12]: 4000 nM; Emax [5]: 60%; Emax [7]: 80%
1300	4000	500	300	CC(=O)N[C@@H](Cc1cnc[nH]1)C(=O)N[C@H](Cc1ccccc1)C(=O)N[C@@H](Cc1cnc[nH]1)C(=O)N[C@@H](Cc1c[nH]c2ccccc12)C(N)=O	Emax [3]: 85%
1600		> 100000		CC(=O)N[C@@H](Cc1cnc[nH]1)C(=O)N[C@H](Cc1ccccc1)C(=O)N[C@@H](CCCNC(=N)N)C(=O)N[C@@H](CC(C)C)C(N)=O	Emax [8]: 20%; Emax [9]: 40%
1300	> 100000	> 100000	> 100000	CC(=O)N[C@@H](Cc1cnc[nH]1)C(=O)N[C@H](Cc1ccccc1)C(=O)N[C@@H](CCCNC(=N)N)C(=O)NCC(N)=O	
900	> 100000	> 100000		CC(=O)N[C@@H](Cc1cnc[nH]1)C(=O)N[C@H](Cc1ccccc1)C(=O)N[C@@H](CCCNC(=N)N)C(=O)N[C@@H](CCCNC(=N)N)C(N)=O	Emax [9]: 20%
90		3800	2000	CC(=O)N[C@@H](Cc1cnc[nH]1)C(=O)N[C@H](Cc1ccccc1)C(=O)N[C@@H](CC(C)C)C(=O)N[C@@H](Cc1c[nH]c2ccccc12)C(N)=O	Emax [8]: 25%; Emax [5]: 85%
				CC(=O)N[C@@H](Cc1cnc[nH]1)C(=O)N[C@H](Cc1ccccc1)C(=O)N[C@@H](CCCNC(=N)N)C(=O)N[C@@H](Cc1c[nH]c2ccccc12)C(N)=O	Emax [8]: 30%
1600	1300	270	270	CC(=O)N[C@@H](CCC(N)=O)C(=O)N[C@H](Cc1ccccc1)C(=O)N[C@@H](CCCNC(=N)N)C(=O)N[C@@H](Cc1c[nH]c2ccccc12)C(N)=O	Emax [3]: 80%; Emax [5]: 80%; fold change (FC) [13]: 10
	> 100000	> 100000		CC(=O)N[C@@H](Cc1cnc[nH]1)C(=O)N[C@@H](CC(C)C)C(=O)N[C@@H](CCCNC(=N)N)C(=O)N[C@@H](Cc1c[nH]c2ccccc12)C(N)=O (Ac-HLRW-NH2)	Emax [14]: 25%; Emax [9]: 25%
		21	11	CC(=O)N[C@@H](Cc1cnc[nH]1)C(=O)N[C@H](Cc1ccccc1)C(=O)N[C@@H](CCCN=C(N)N)C(=O)N[C@@H](Cc1c[nH]c2ccccc12)C(N)=O	
